Test results reported in patent US10920190B2, “Folding biological tissue via programmed cellular contractility” (The Regents of the University of California, priority 2016, dated 2021).

Tests used:
[1] = tested on: mesenchymal-like carcinoma cells; test: Unfolding of pre-folded isotropic reconstituted tissues after ablating actuator cells; type: cell-based
Method: (§1) Blebbistatin (Abcam ab120491) and staurosporine (Sigma-Aldrich S5921) were added to cell media at the indicated concentrations by serial dilution from 10 mM DMSO stocks.
Curvatures reported for cap reconstituted tissues were generated by radially reslicing and thresholding in ImageJ after manually picking the center of reconstituted tissues to serve as origin points. Radial slices were read into MATLAB and least-squares fitted to circles. Anisotropic curvatures were similarly generated for the indicated cutting planes and folds.

[2] = tested on: mesenchymal-like carcinoma cells; test: Efficacy of staurosporine on cells cultured on standard tissue culture plastic (cell viability); type: cell-based; settings: 20 μM, n=6
Method: as §1

[3] = tested on: Chick skin explants; test: Feather bud formation in chick skin explants in culture; parameters: species or system chickens; settings: chick skin explants at Hamburger-Hamilton (HH) stage 32 in culture
Method: as §1
(§2) FIG. 21. (A). Gut villi in embryonic mice form in concert with condensation of PDGFR-positive mesenchymal fibroblasts at sites of villus curvature. These clusters are associated with local alignment and compaction of collagen 1 fibrils against the E-cadherin-positive epithelium. […] B) Feather buds in embryonic chickens form from a flat epithelium, and can be visualized with non-specific ethidium bromide staining Chick skin explants at Hamburger-Hamilton (HH) stage 32 form feather buds in culture, but feather bud spacing and height are disrupted in the presence of blebbistatin.

[4] = tested on: explanted guts; test: Cell clustering and collagen 1 remodeling in explanted embryonic guts; settings: explanted guts of embryonic mice treated with inhibitor; results not shown
Method: as §1, §2

CN[C@@H]1C[C@H]2O[C@@](C)([C@@H]1OC)n1c3ccccc3c3c4c(c5c6ccccc6n2c5c31)C(=O)NC4 [staurosporine]
pre-folded isotropic tissue curvatures (maximum curvature relative to average maximum curvature prior to addition) ([1]; 20 μM, n=4 reconstituted tissues per condition): modest reductions
unfolding of pre-folded tissues ([1]; upon inducing apoptosis of condensing cells using staurosporine (FIG. 13)): less than 40%
cell death (cell viability) [2]: nearly complete cell death

Cc1ccc2c(c1)C(=O)C1(O)CCN(c3ccccc3)C1=N2 (centres unmarked) [blebbistatin]
feather bud spacing and height [3]: disrupted
cell clustering and collagen 1 remodeling [4]: does not occur
